{
  "source": "patent US11890318B2",
  "about": "“Methods and compositions for modulating appetite and intake of sodium” (California Institute of Technology, priority 2019, dated 2024)",
  "key": {"[1]": {"system": "pre-LC^PDYN neurons expressing hM4Di", "test": "Slice electrophysiology, chemogenetic (hM4Di) inhibition by CNO", "format": "cell-based", "conditions": "AAV-DIO-hM4Di-mCherry; 10 μM CNO puffed 10 sec; 2 mice; FIG. 8E", "method": "250-μm coronal slices were obtained using a vibratome (VT-1000s, Leica) in ice-cold sucrose-aCSF (artificial cerebrospinal fluid) solution (Sucrose 213, KCl 2.5, NaH2PO4 1.2, NaHCO3 25, glucose 10, MgSO4 7, CaCl2 1, in mM at pH 7.3), and then incubated in HEPES-holding aCSF (NaCl 92, KCl 2.5, NaH2PO4 1.2, NaHCO3 30, HEPES 20, glucose 25, Na-ascorbate 5, thiourea 2, Na-pyruvate 3, MgSO4 2, CaCl2 2, in mM at pH 7.3-7.4). Slices were recovered at 34.5° C. for 45 min and then held at room temperature until use.\nFor patch-clamp recording, slices were placed in a recording chamber perfused with aCSF (NaCl 124, KCl 2.5, NaH2PO4 1.2, NaHCO3 25, glucose 10, MgSO4 1, CaCl2 2, in mM, at pH 7.3) on an upright microscope (Examiner.D1, Zeiss). Whole-cell recordings were achieved using glass pipettes (5-8 MΩ) filled with intracellular solution (for DREADD and iC++ experiments, K-gluconate 145, NaCl 2, KCl 4, HEPES 10, EGTA 0.2, Mg-ATP 4, Na-GTP 0.3; for GABAergic postsynaptic currents, CsCl 145, NaCl 2, HEPES 10, EGTA 0.2, QX-314 bromide 5, Mg-ATP 4, Na-GTP 0.3, in mM at pH 7.25; for glutamatergic postsynaptic currents, Cs(CH3)SO3 145, NaCl 2, HEPES 10, EGTA 0.2, QX-314 bromide 5, Mg-ATP 4, Na-GTP 0.3, in mM, at pH 7.25). Electrical signals were filtered at 3 k Hz with Axon MultiClamp 700B (Molecular Devices) and collected at 20 kHz with Axon Digidata 1550A (Molecular Devices). […]"}, "[2]": {"system": "pre-LC^PDYN neurons", "test": "Chemogenetic manipulation, sodium and water consumption", "format": "in vivo, mice", "conditions": "CNO 10 mg/kg intraperitoneal", "text": "For ChR2 photostimulation. 473 nm laser pulses (20 ms, 20 Hz) were delivered via an optic cable (MFP-FC-ZF, Doric Lenses) using a pulse generator (Sapphire 9200 from Quantum composers or SYS-A310 from WPI). The laser intensity was maintained at 5-10 mW at the tip of the fiber. Unless otherwise noted, photostimulation was delivered for 1 s at 3 s intervals throughout the behavior session. For iC++ photoinhibition, 473 nm laser was continuously turned on throughout the session at 3 mW at the tip of the fiber. For chemogenetic manipulation (FIGS. 8E-H), CNO (Sigma, 10 mg/kg) or vehicle (water) was administered intraperitoneal 20 min before the sodium consumption experiment.\nTo induce sodium appetite, animals were injected with furosemide (Sigma) at a dose of 50 mg/kg body weight. Low sodium diet (TD. 90228, ENVIGO) was provided for 2 days after the injection of furosemide. For water-restriction experiments, animals were kept in their home cage without water, and were provided with 1 mL of water daily. For food restriction experiments, animals were deprived of food up to 24 hrs with normal water provided. All assays were performed in a custom gustometer (Dialog Instruments) or Biodaq monitoring system (Research Diets Inc). All sodium-depleted animals were trained in a gustometer before experiments. Animals which licked at least 150 licks during the 30-min session were used for further behavioral assays. After every sodium-depletion round, animals were recovered for at least 4 days with the normal diet.\n(§1) For appetite specificity assay (FIG. 7C), three different solutions were presented to animals during the same session, and their preference was measured as a lick number. For each trial, 20 sec of photostimulation was delivered to the animal with an inter-trial-interval of 60 secs. Water, 0.5 M KCl, 0.5 M NaCl, or 0.5 M NaCl+30 μM amiloride was used for preference assay. For sodium consumption assay (FIGS. 1E, 1G, and 1H), animals were given ad libitum access to 0.5 M NaCl, water or an empty spout for either 7.5 or 30 min."}, "[3]": {"system": "pre-LC^PDYN neurons", "test": "Fibre photometry recording of GCaMP6s signals from pre-LC^PDYN neurons during ingestion or IG infusion", "format": "in vivo, mice", "protocol": "For photometry recording, animals were given either 5- or 10-minutes access to stimuli. To examine sodium specific responses of pre-LC^PDYN neurons (FIGS. 3D, 3E), animals were presented with three solutions during the session. First, animals were given 5 min access to 0.5 M KCl (FIG. 3D) or 0.5 M NaCl+0.1 mM amiloride (FIG. 3E). Then animals had 5 min access to water. Finally, animals were given 5 min access to 0.5 M NaCl. The interval between trials was 5 min. In FIG. 4B, 0.5 M NaCl, deionized water, or glucose solution (5 M) was infused via an intragastric catheter. Solutions were delivered at 0.1 ml/min for 5 min (water and sodium) or 10 min (food) using an infusion syringe pump (NE-300, New Era Pump Systems Inc). 10 min after gastric infusion, animals were given access to nutrients and their consumption was quantified for 10 min (for water and 0.5 M NaCl), or 30 min (for normal chow). Either air infusion (for water), or water infusion (for sodium and food) was used as a control stimulus. In FIG. 4D, either 0.15 M NaCl, water, or air was infused at a rate of 0.1 ml/min while recording the neural activity by photometry. For control, oral ingestion (FIG. 4C), the same set of animals were given access to 0.15 M NaCl. For all photometry assays, animals were acclimatized for 10-15 min in the chamber before stimuli were presented. Bulk fluorescence signals were collected using fibre photometry as previously described. Briefly, data were extracted and subjected to a low-pass filter at 1.8 Hz. A linear function was used to scale up the 405-nm channel signal to the 490-nm channel signal to obtain the fitted 405-nm signal. The resultant ΔF/F was calculated as (raw 490 nm signal−fitted 405 nm signal)/(fitted 405 nm signal). ΔF/F was then time-binned by a factor of 2.5 times the sampling frequency and down-sampled to 10 Hz. For all bouts, the mean fluorescence for 5 min before the first lick was calculated and subtracted from the entire session. The licks from the lickometer were simultaneously recorded. The area under the curve (AUC) was quantified by integrating the baseline-subtracted fluorescence signals for 30 sec after the start of the bout. For FIG. 10D, the data were quantified as ΔF/F change between 1 sec prior to, and at the first lick (0 sec). For IG infusion experiments (FIG. 4E), AUC was quantified during the 5-min of infusion."}, "[4]": {"test": "Intragastric infusion and subsequent ingestive behavior", "format": "in vivo", "conditions": "sodium-depleted mice", "protocol": "In FIG. 4B, 0.5 M NaCl, deionized water, or glucose solution (5 M) was infused via an intragastric catheter. Solutions were delivered at 0.1 ml/min for 5 min (water and sodium) or 10 min (food) using an infusion syringe pump (NE-300, New Era Pump Systems Inc). 10 min after gastric infusion, animals were given access to nutrients and their consumption was quantified for 10 min (for water and 0.5 M NaCl), or 30 min (for normal chow). Either air infusion (for water), or water infusion (for sodium and food) was used as a control stimulus. In FIG. 4D, either 0.15 M NaCl, water, or air was infused at a rate of 0.1 ml/min while recording the neural activity by photometry. For control, oral ingestion (FIG. 4C), the same set of animals were given access to 0.15 M NaCl."}, "[5]": {"system": "Pre-LC^PDYN-stimulated animals", "test": "Preference assay (appetite specificity) under photostimulation of pre-LC^PDYN neurons", "format": "in vivo, mice", "conditions": "photostimulated animals; 0.5 M NaCl+30 μM amiloride; FIG. 7C", "protocol": "as §1"}, "[6]": {"system": "dBNST→pre-LC neurons", "test": "Optical recording of calcium responses of dBNST→pre-LC neurons", "format": "in vivo, mice", "conditions": "sodium-depleted conditions; FIG. 5F", "protocol": "For all photometry assays, animals were acclimatized for 10-15 min in the chamber before stimuli were presented. Bulk fluorescence signals were collected using fibre photometry as previously described. Briefly, data were extracted and subjected to a low-pass filter at 1.8 Hz. A linear function was used to scale up the 405-nm channel signal to the 490-nm channel signal to obtain the fitted 405-nm signal. The resultant ΔF/F was calculated as (raw 490 nm signal−fitted 405 nm signal)/(fitted 405 nm signal). ΔF/F was then time-binned by a factor of 2.5 times the sampling frequency and down-sampled to 10 Hz. For all bouts, the mean fluorescence for 5 min before the first lick was calculated and subtracted from the entire session. The licks from the lickometer were simultaneously recorded. The area under the curve (AUC) was quantified by integrating the baseline-subtracted fluorescence signals for 30 sec after the start of the bout. For FIG. 10D, the data were quantified as ΔF/F change between 1 sec prior to, and at the first lick (0 sec). For IG infusion experiments (FIG. 4E), AUC was quantified during the 5-min of infusion.\nTo label the dBNST→pre-LC circuit, 100 nl of CAV-Cre was injected into the pre-LC followed by the injection of AAV5-DIO-mCherry or AAV1-flex-GCaMP6S into the dBNST. These animals were used for experiments at least two weeks after the injection."}},
  "note": "“Also recorded” adds a separate entry of the source.",
  "data": [
    {"smiles": "C[N+]1([O-])CCN(C2=Nc3cc(Cl)ccc3Nc3ccccc32)CC1", "note": "[CNO, clozapine N-oxide]", "values": [
      {"measurement": "pre-LC^PDYN neurons inhibited by CNO", "setting": "[1]", "value": "13 out of 14"},
      {"measurement": "thirst or sodium appetite in control animals", "setting": "[2]; AAV-DIO-mCherry injected animals, FIG. 8H", "value": "did not affect thirst or sodium appetite"},
      {"measurement": "thirst under chemogenetic inhibition", "setting": "[2]; hM4Di, FIG. 8G", "value": "did not affect thirst"},
      {"measurement": "sodium intake under chemogenetic inhibition", "setting": "[2]; hM4Di, sodium-depleted animals, FIG. 8G", "value": "reduced sodium intake"}
    ]},
    {"smiles": "[Cl-].[K+]", "note": "[KCl]", "values": [
      {"measurement": "pre-LC^PDYN neuron activity upon ingestion of KCl", "setting": "[3]; sodium-depleted animals, 0.5 M KCl, FIG. 3D", "value": "no suppression was observed; also recorded: did not affect"}
    ]},
    {"smiles": "[Cl-].[Na+]", "note": "[NaCl]", "values": [
      {"measurement": "pre-LC^PDYN neuron activity, low concentration of NaCl", "setting": "[3]; 0.06 M NaCl, FIG. 10B", "value": "exhibited inhibitory effects"},
      {"measurement": "pre-LC^PDYN neuron activity after brief NaCl intake", "setting": "[3]; NaCl intake for 1 sec, FIG. 3F", "value": "robust suppression for several minutes; also recorded: induced persistent suppression"},
      {"measurement": "neural activity of pre-LC^PDYN neurons, IG infusion of NaCl", "setting": "[3]; intragastric infusion, 0.15 M NaCl, 0.1 ml/min, FIGS. 4D and 4E", "value": "no inhibitory effect; also recorded: not affected"},
      {"measurement": "neural activity of pre-LC^PDYN neurons, oral NaCl consumption", "setting": "[3]; oral, 0.15 M NaCl, FIGS. 4C and 4E", "value": "drastically reduced"},
      {"measurement": "subsequent sodium ingestion after gastric preloading of NaCl", "setting": "[4]; IG 0.5 M NaCl, 0.1 ml/min for 5 min, FIG. 4B left", "value": "did not affect"},
      {"measurement": "appetite reduction after a long period of IG infusion", "setting": "[4]; IG NaCl, after 2 hrs", "value": "41.3±6.0", "unit": "%"},
      {"measurement": "sodium appetite after oral NaCl contact", "setting": "[4]; oral, FIG. 4B left", "value": "quickly quenched the appetite"}
    ]},
    {"smiles": "N=C(N)NC(=O)c1nc(Cl)c(N)nc1N", "note": "[amiloride, reference compound]", "values": [
      {"measurement": "NaCl-induced suppression of pre-LC^PDYN neurons with amiloride", "setting": "[3]; sodium-depleted animals, 0.5 M NaCl+0.1 mM amiloride, FIG. 3E", "value": "fully abolished; also recorded: eliminated inhibition"},
      {"measurement": "NaCl consumption in the presence of amiloride", "setting": "[5]", "value": "reduced"},
      {"measurement": "responses of dBNST→pre-LC neurons upon NaCl intake with amiloride", "setting": "[6]", "value": "strongly inhibited"}
    ]}
  ]
}
